In ChEMBL document CHEMBL3751801, “Synthesis of novel polybrominated benzimidazole derivatives-potential CK2 inhibitors with anticancer and proapoptotic activity” (Bioorg Med Chem, 2016):

Legend:
[1] = test system: CCRF-CEM; experiment: Cytotoxicity against human CCRF-CEM cells assessed as cell viability at 10 uM after 24 hrs by MTT assay; format: functional; conditions: read-out: Activity
[2] = test system: CCRF-CEM; experiment: Cytotoxicity against human CCRF-CEM cells assessed as cell viability at 20 uM after 24 hrs by MTT assay; format: functional; conditions: read-out: Activity
[3] = test system: CCRF-CEM; experiment: Cytotoxicity against human CCRF-CEM cells assessed as cell viability at 50 uM after 24 hrs by MTT assay; format: functional; conditions: read-out: Activity
[4] = test system: MCF7; experiment: Cytotoxicity against human MCF7 cells assessed as cell viability at 10 uM after 24 hrs by MTT assay; format: functional; conditions: MCF7, 24 h, read-out: Activity
[5] = test system: MCF7; experiment: Cytotoxicity against human MCF7 cells assessed as cell viability at 20 uM after 24 hrs by MTT assay; format: functional; conditions: MCF7, 24 h, read-out: Activity
[6] = test system: MCF7; experiment: Cytotoxicity against human MCF7 cells assessed as cell viability at 50 uM after 24 hrs by MTT assay; format: functional; conditions: MCF7, 24 h, read-out: Activity
[7] = test system: CCRF-CEM; experiment: Induction of apoptosis in human CCRF-CEM cells assessed as viable cells at 10 uM after 24 hrs by annexinV and propidium iodide staining based FACS analysis (reference value: 96.4 +/- 1.2%); format: functional; conditions: read-out: Activity
[8] = test system: CCRF-CEM; experiment: Induction of apoptosis in human CCRF-CEM cells assessed as viable cells at 50 uM after 24 hrs by annexinV and propidium iodide staining based FACS analysis (reference value: 96.4 +/- 1.2%); format: functional; conditions: read-out: Activity
[9] = test system: CCRF-CEM; experiment: Induction of apoptosis in human CCRF-CEM cells assessed as early apoptotic cells at 10 uM after 24 hrs by annexinV and propidium iodide staining based FACS analysis (reference value: 1.5 +/- 0.8%); format: functional
[10] = test system: CCRF-CEM; experiment: Induction of apoptosis in human CCRF-CEM cells assessed as early apoptotic cells at 50 uM after 24 hrs by annexinV and propidium iodide staining based FACS analysis (reference value: 1.5 +/- 0.8%); format: functional
[11] = test system: CCRF-CEM; experiment: Induction of apoptosis in human CCRF-CEM cells assessed as late apoptotic cells at 10 uM after 24 hrs by annexinV and propidium iodide staining based FACS analysis (reference value: 1.9 +/- 0.5%); format: functional
[12] = test system: CCRF-CEM; experiment: Induction of apoptosis in human CCRF-CEM cells assessed as late apoptotic cells at 50 uM after 24 hrs by annexinV and propidium iodide staining based FACS analysis (reference value: 1.9 +/- 0.5%); format: functional
[13] = test system: CCRF-CEM; experiment: Induction of apoptosis in human CCRF-CEM cells assessed as necrotic cells at 10 uM after 24 hrs by annexinV and propidium iodide staining based FACS analysis (reference value: 0.1 +/- 0.1%); format: functional
[14] = test system: CCRF-CEM; experiment: Induction of apoptosis in human CCRF-CEM cells assessed as necrotic cells at 50 uM after 24 hrs by annexinV and propidium iodide staining based FACS analysis (reference value: 0.1 +/- 0.1%); format: functional
[15] = target: CDK2/Cyclin A2 (Homo sapiens) (UniProt P24941+P20248); experiment: Inhibition of CDK2/CycA2 (unknown origin) assessed as enzyme activity at 10 uM; format: protein-complex assay; set-up: scale not given: the % may be the effect or the level left
[16] = target: Casein kinase I isoform alpha (Homo sapiens) (UniProt P48729); experiment: Inhibition of CK1-alpha1 (unknown origin) assessed as enzyme activity at 10 uM; set-up: scale not given: the % may be the effect or the level left
Sequence of Casein kinase I isoform alpha (Homo sapiens) (P48729 2-337 limits assumed): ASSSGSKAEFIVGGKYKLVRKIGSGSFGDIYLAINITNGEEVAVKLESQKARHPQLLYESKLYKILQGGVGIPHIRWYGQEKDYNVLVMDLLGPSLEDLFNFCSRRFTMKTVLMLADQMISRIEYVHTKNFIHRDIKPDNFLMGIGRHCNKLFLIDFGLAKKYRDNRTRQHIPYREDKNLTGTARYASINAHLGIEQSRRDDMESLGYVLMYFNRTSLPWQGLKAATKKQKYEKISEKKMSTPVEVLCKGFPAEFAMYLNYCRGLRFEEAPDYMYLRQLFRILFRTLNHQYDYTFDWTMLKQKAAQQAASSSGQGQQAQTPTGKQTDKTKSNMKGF

[17] = target: Dual specificity tyrosine-phosphorylation-regulated kinase 1A (Homo sapiens) (UniProt Q13627); experiment: Inhibition of DYRK1A (unknown origin) assessed as enzyme activity at 10 uM; set-up: scale not given: the % may be the effect or the level left
[18] = target: Mitogen-activated protein kinase 3 (Homo sapiens) (UniProt P27361); experiment: Inhibition of Erk1 (unknown origin) assessed as enzyme activity at 10 uM; set-up: scale not given: the % may be the effect or the level left
Sequence of Mitogen-activated protein kinase 3 (Homo sapiens) (P27361 whole entry): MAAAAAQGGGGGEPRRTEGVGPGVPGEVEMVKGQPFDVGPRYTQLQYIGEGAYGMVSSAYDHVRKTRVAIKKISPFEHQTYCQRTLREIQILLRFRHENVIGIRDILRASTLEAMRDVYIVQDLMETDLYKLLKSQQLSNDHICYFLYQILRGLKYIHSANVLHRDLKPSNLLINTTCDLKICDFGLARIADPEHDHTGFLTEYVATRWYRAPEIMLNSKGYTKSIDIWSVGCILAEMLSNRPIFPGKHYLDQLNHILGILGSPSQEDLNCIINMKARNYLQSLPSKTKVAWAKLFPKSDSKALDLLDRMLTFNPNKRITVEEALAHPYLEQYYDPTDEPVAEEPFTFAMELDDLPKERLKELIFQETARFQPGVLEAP

[19] = target: Homeodomain-interacting protein kinase 1 (Homo sapiens) (UniProt Q86Z02); experiment: Inhibition of HIPK1 (unknown origin) assessed as enzyme activity at 10 uM; set-up: scale not given: the % may be the effect or the level left
Sequence of Homeodomain-interacting protein kinase 1 (Homo sapiens) (Q86Z02 whole entry, looked up): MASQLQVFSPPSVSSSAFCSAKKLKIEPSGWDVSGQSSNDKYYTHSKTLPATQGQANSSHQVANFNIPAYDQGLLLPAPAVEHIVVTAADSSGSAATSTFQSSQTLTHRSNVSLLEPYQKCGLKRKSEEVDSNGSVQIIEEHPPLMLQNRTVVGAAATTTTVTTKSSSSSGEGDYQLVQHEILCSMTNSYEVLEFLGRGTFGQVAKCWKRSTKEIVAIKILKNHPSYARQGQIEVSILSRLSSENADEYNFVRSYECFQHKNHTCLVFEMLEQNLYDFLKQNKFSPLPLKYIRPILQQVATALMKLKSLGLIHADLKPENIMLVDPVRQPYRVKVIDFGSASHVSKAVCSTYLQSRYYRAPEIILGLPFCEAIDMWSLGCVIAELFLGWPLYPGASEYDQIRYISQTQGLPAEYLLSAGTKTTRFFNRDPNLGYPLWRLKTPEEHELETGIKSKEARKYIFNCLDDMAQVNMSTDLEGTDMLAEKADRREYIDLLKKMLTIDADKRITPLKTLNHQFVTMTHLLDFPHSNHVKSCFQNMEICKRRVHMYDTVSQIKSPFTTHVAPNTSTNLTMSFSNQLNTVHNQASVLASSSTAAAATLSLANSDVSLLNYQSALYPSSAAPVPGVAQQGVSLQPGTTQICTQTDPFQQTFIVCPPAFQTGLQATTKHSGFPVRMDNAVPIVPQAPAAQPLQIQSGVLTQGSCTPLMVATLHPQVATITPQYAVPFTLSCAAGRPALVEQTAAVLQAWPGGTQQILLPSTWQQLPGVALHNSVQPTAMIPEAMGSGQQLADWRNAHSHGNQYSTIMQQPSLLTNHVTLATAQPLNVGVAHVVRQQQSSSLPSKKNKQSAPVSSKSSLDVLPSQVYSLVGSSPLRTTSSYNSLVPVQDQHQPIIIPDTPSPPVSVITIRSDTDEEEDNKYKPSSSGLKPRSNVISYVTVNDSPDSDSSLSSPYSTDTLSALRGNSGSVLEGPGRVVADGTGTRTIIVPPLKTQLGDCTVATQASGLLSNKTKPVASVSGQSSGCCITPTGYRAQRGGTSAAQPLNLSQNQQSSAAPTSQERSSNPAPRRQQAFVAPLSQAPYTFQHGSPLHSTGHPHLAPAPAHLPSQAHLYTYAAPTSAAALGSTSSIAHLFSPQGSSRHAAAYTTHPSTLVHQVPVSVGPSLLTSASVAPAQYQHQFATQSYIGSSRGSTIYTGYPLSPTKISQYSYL

[20] = target: Serine/threonine-protein kinase pim-1 (Homo sapiens) (UniProt P11309); experiment: Inhibition of PIM1 (unknown origin) assessed as enzyme activity at 10 uM; set-up: scale not given: the % may be the effect or the level left
Sequence of Serine/threonine-protein kinase pim-1 (Homo sapiens) (P11309 whole entry, looked up): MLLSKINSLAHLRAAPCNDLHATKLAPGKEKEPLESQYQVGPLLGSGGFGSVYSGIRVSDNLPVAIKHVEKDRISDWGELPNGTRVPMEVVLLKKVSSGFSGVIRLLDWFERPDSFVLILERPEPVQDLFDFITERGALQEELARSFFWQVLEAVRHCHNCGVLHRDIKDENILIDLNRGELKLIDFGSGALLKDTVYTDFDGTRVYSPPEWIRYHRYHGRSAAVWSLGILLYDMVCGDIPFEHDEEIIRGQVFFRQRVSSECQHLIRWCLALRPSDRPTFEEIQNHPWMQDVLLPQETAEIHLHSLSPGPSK

[21] = species on record: Homo sapiens; experiment: Inhibition of PKA (unknown origin) assessed as enzyme activity at 10 uM; set-up: scale not given: the % may be the effect or the level left
[22] = target: T1, Serine/threonine-protein kinase D2 (Homo sapiens) (UniProt Q9BZL6); experiment: Inhibition of PRKD2 (unknown origin) assessed as enzyme activity at 10 uM; set-up: scale not given: the % may be the effect or the level left
T1 sequence (whole entry): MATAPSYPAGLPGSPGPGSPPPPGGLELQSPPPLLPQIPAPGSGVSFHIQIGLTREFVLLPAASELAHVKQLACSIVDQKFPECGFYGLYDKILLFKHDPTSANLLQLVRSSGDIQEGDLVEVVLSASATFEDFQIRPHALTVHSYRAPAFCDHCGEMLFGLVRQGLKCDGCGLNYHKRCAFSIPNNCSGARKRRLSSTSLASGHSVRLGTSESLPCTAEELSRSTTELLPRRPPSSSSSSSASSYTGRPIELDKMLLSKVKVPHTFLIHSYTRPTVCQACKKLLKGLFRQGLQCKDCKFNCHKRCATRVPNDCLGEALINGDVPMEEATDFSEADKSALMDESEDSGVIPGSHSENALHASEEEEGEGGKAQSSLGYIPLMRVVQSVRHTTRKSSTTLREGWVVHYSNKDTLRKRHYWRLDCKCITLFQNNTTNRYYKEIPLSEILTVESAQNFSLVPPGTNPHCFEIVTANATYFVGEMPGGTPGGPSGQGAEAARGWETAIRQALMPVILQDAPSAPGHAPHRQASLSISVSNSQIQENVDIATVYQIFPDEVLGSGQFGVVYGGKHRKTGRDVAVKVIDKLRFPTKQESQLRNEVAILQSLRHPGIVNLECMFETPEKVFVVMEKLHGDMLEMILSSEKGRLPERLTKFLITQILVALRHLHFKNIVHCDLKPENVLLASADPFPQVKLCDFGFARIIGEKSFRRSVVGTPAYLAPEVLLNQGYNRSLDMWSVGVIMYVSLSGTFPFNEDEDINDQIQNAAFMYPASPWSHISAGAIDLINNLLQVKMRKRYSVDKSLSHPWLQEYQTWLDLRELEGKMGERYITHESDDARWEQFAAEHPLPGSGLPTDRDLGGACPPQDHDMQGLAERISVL

SMILES: N#CCn1cnc2c(Br)c(Br)c(Br)c(Br)c21
- viability at 10 µM [1]: 63%
- viability at 20 µM [2]: 28%
- viability at 50 µM [3]: 2%
- viability at 10 µM [4]: 87%
- viability at 20 µM [5]: 65%
- viability at 50 µM [6]: 43%
- viability at 10 µM [7]: 76.2%
- viability at 50 µM [8]: 14.8%
- Activity [9]: 12.3%
- Activity [10]: 62.7%
- Activity [11]: 8.8%
- Activity [12]: 20.4%
- Activity [13]: 0.5%
- Activity [14]: 0.8%

SMILES: N#CCCCCn1cnc2c(Br)c(Br)c(Br)c(Br)c21
- viability at 10 µM [1]: 98%
- viability at 20 µM [2]: 70%
- viability at 50 µM [3]: 1%
- viability at 10 µM [4]: 102%
- viability at 20 µM [5]: 99%
- viability at 50 µM [6]: 18%
- viability at 10 µM [7]: 93.6%
- viability at 50 µM [8]: 14.3%
- Activity [9]: 3.2%
- Activity [10]: 39.9%
- Activity [11]: 3.1%
- Activity [12]: 44.9%
- Activity [13]: 0.1%
- Activity [14]: 0.9%

SMILES: N#CCCn1cnc2c(Br)c(Br)c(Br)c(Br)c21
- viability at 10 µM [1]: 80%
- viability at 20 µM [2]: 44%
- viability at 50 µM [3]: 2%
- viability at 10 µM [4]: 81%
- viability at 20 µM [5]: 72%
- viability at 50 µM [6]: 23%
- viability at 10 µM [7]: 90.6%
- viability at 50 µM [8]: 5.4%
- Activity [9]: 5.4%
- Activity [10]: 77.2%
- Activity [11]: 3.9%
- Activity [12]: 17%
- Activity [13]: 0.1%
- Activity [14]: 0.4%

SMILES: Brc1c(Br)c(Br)c2[nH]cnc2c1Br
- Activity [15]: 23%
- Activity [16]: 48%
- Activity [17]: 3%
- Activity [18]: 78%
- Activity [19]: 9%
- Activity [20]: 2%
- Activity [21]: 75%
- Activity [22]: 5%
- viability at 10 µM [1]: 92%
- viability at 20 µM [2]: 67%
- viability at 50 µM [3]: 7%
- viability at 10 µM [4]: 94%
- viability at 20 µM [5]: 77%
- viability at 50 µM [6]: 40%
- viability at 10 µM [7]: 94.8%
- viability at 50 µM [8]: 18.8%
- Activity [9]: 2.4%
- Activity [10]: 59.2%
- Activity [11]: 2.7%
- Activity [12]: 26%
- Activity [13]: 0.1%
- Activity [14]: 1%

SMILES: Cc1nc2c(Br)c(Br)c(Br)c(Br)c2n1CC#N
- viability at 10 µM [1]: 45%
- viability at 20 µM [2]: 14%
- viability at 50 µM [3]: 2%
- viability at 10 µM [4]: 52%
- viability at 20 µM [5]: 36%
- viability at 50 µM [6]: 11%
- viability at 10 µM [7]: 52%
- viability at 50 µM [8]: 2.4%
- Activity [9]: 28.9%
- Activity [10]: 59.7%
- Activity [11]: 17.8%
- Activity [12]: 33.9%
- Activity [13]: 0.8%
- Activity [14]: 0.6%

SMILES: N#CCCCn1cnc2c(Br)c(Br)c(Br)c(Br)c21
- viability at 10 µM [1]: 85%
- viability at 20 µM [2]: 70%
- viability at 50 µM [3]: 2%
- viability at 10 µM [4]: 89%
- viability at 20 µM [5]: 70%
- viability at 50 µM [6]: 16%
- viability at 10 µM [7]: 92.8%
- viability at 50 µM [8]: 21.5%
- Activity [9]: 3.3%
- Activity [10]: 41.1%
- Activity [11]: 3.8%
- Activity [12]: 33.3%
- Activity [13]: 0.1%
- Activity [14]: 2.3%

SMILES: Cc1nc2c(Br)c(Br)c(Br)c(Br)c2n1CCCC#N
- viability at 10 µM [1]: 68%
- viability at 20 µM [2]: 44%
- viability at 50 µM [3]: 1%
- viability at 10 µM [4]: 65%
- viability at 20 µM [5]: 56%
- viability at 50 µM [6]: 5%
- viability at 10 µM [7]: 82.4%
- viability at 50 µM [8]: 3.3%
- Activity [9]: 10.8%
- Activity [10]: 14.7%
- Activity [11]: 6.3%
- Activity [12]: 76.3%
- Activity [13]: 0.5%
- Activity [14]: 5.7%

SMILES: Cc1nc2c(Br)c(Br)c(Br)c(Br)c2n1CCC#N
- viability at 10 µM [1]: 84%
- viability at 20 µM [2]: 51%
- viability at 50 µM [3]: 2%
- viability at 10 µM [4]: 85%
- viability at 20 µM [5]: 74%
- viability at 50 µM [6]: 15%
- viability at 10 µM [7]: 82%
- viability at 50 µM [8]: 6.2%
- Activity [9]: 10.6%
- Activity [10]: 69.6%
- Activity [11]: 7.1%
- Activity [12]: 20.1%
- Activity [13]: 0.2%
- Activity [14]: 0.9%

SMILES: Cc1nc2c(Br)c(Br)c(Br)c(Br)c2n1CCCCC#N
- viability at 10 µM [1]: 92%
- viability at 20 µM [2]: 61%
- viability at 50 µM [3]: 55%
- viability at 10 µM [4]: 109%
- viability at 20 µM [5]: 110%
- viability at 50 µM [6]: 42%
- viability at 10 µM [7]: 93.5%
- viability at 50 µM [8]: 30.2%
- Activity [9]: 3.6%
- Activity [10]: 39.9%
- Activity [11]: 2.9%
- Activity [12]: 29.3%
- Activity [13]: 0.1%
- Activity [14]: 0.6%
